This note sets out measurements from PubChem BioAssay AID2745 (NMMLSC, 2010).

Activity calls are given as the source filed them. The rule behind the calls is not given here.

Test system in one assay: not listed separately
In words: concentration series on yeast TOR reporter LAP4 – cell-based, MLPCN hits, flow cytometry, dose response (AID 2745).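 Note: yeast exposed to compound for three hours at 30 degrees.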 The settings on record: S. cerevisiae LAP4-GFP reporter, flow cytometry fluorescence; at 33 µM (top of the series).
For `CN(Cc1cnc2nc(N)nc(N)c2n1)c1ccc(C(=O)N[C@@H](CCC(=O)O)C(=O)O)cc1`, the LAP4-GFP fluorescence (kMESF) is 10.8 kMESF (inactive).

The subject of the next assay is S. cerevisiae LAP4-GFP reporter, flow cytometry fluorescence. The assay is described as above.
Details: not given
As for `CN(Cc1cnc2nc(N)nc(N)c2n1)c1ccc(C(=O)N[C@@H](CCC(=O)O)C(=O)O)cc1`, the EC50 was 5.18 µM.

On to `O=C(Oc1c(Cl)cc(Cl)c2cccnc12)c1ccco1`, for which the EC50 was 2.46 µM.

As to `COc1cc(N2C(=O)C=CC2=O)c(OC)cc1Cl`, the EC50 was 1.44 µM.

Regarding `O=C(Nc1ccc(Cl)cc1)ON=C1CCCC1`, the EC50 was 3.95 µM.

Consider `CC(Oc1ccc(Cl)cc1)C(=O)NNC(=S)NC(=O)c1ccco1` (stereo not given), for which the EC50 was 7.2 µM.

`O=C1ON=C(c2ccccc2)/C1=C/c1ccco1`: the EC50 was 4.26 µM.

With `Cc1ccc(C(=O)O)cc1N=Cc1cc(Br)cc(Br)c1O`, the EC50 was 4.17 µM.

For `Cc1cc(S(=O)(=O)ON2C(=O)c3ccccc3C2=O)ccc1F`, the EC50 is 4.21 µM.

As to `O=C1NC(=O)C(=Cc2ccc(-c3ccc(Cl)cc3)o2)C(=O)N1`, the EC50 was 1.41 µM.

Take `Oc1c(I)cc(Cl)c2cccnc12`: the EC50 is 0.986 µM.

Turning to `O=C1C=CC(=O)N1c1ccc(O)cc1`, the EC50 is 4.09 µM.

With `O=C(CCc1ccccc1)NNC(=S)NC(=O)c1ccccc1`, the concentration giving a half-maximal response (EC50) is 32.2 µM.

As to `CC(C)(C)c1nnc(N/N=C/c2cc(Br)ccc2O)n(N)c1=O`, the concentration giving a half-maximal response (EC50) is 12.2 µM.

Regarding `O=C(Nc1ccc(Cl)cc1Cl)c1cccc(N2C(=O)C=CC2=O)c1`, the EC50 is 3.92 µM.

As to `O=C(NC(=S)NNC(=O)c1cnccn1)c1ccc(Cl)cc1`, the EC50 is 1.75 µM.

`CNC(CC(=O)c1ccc([N+](=O)[O-])cc1)C(Cl)(Cl)Cl` (stereo not given): the EC50 is 1.34 µM.

For `Nc1ccccc1C#CC(=O)c1ccccc1`, the EC50 was 8.31 µM.

Turning to `O=C(Nc1nc(-c2ccccn2)cs1)c1cc2ccccc2o1`, the EC50 was 4.09 µM.

As to `CCCCCCCCC/C(=N\O)c1ccccn1`, the EC50 was 6.13 µM.
